# Like-named read-outs stand apart in the source and are kept apart here.
# Test system: UBE3A-AS
# Assay: UBE3A-AS steady state RNA (TaqMan qRT-PCR) in GABAergic iPSC-derived neurons
# Assay type: cell-based, human
# Conditions: for Difference, UBE3A-AS RNA level / UBE3A-AS RNA levels relative to the control treatment (in words): ASOs 10 μM; for low concentration that significantly reduced UBE3A-AS RNA levels: human iPSC-derived neurons; for Relative Potency: relative to ASO 4.S = 1; for decrease of UBE3A-AS RNA levels: 10 μM
# Experimental: Human-specific ASOs were then designed to target this region, which included four ASOs targeting non-polymorphic regions in human and regions conserved (100%) with macaque (Rhesus and Cynomolgus) (Table 7 and FIG. 3A). Human induced pluripotent stem cell (iPSC) neural precursor cells were differentiated into GABAergic neurons for 14 DIV and then treated with a control ASO [ASO-C (10 μM, n=3)], Topotecan [Topo (1 μM, n=2)], and six ASOs targeting UBE3A-AS [ASO-1, ASO-2, ASO-3, ASO-4, ASO-5, and ASO-6 (10 μM, n=3)]. Additionally, an ASO targeting an intronic region downstream of SNORD109B was included (ASO-7). Six days post-treatment (20 DIV), RNA was isolated from the neurons and the steady state RNA levels of UBE3A-AS and UBE3A were estimated relative to the control treatment (FIG. 3B).
# The potency of ASO-4 was further examined given its effect on UBE3A-AS RNA levels. GABAergic iPSC-derived neurons were treated at 14 DIV with a 10-point ½ log dose response curve of ASO-4 and Topotecan, as a positive control and for comparisons between treatment [1 nM, 3 nM, 10 nM, 30 nM, 100 nM, 300 nM, 1 μM, 3 μM, 10 μM, and 30 μM (ASO-4, n=6; Topotecan, n=2)]. At 20 DIV, the steady state RNA levels of UBE3A-AS were measured and dose response curves fitted to estimate the IC50 and Emax (i.e., maximum UBE3A-AS inhibition) (Table 9 and FIG. 4A). […]
# Additional ASOs targeting the 5′-end of UBE3A-AS were then designed to optimize the target sequences of ASO-4 (ASO-4.1, ASO-4.2, ASO-4.3, and ASO-4.4) as well as two other target regions, ASO-3 (ASO-3.1 and ASO-3.2) and ASO-6 (ASO-6.1) (Table 11). Additionally, ASO-4 was manufactured at two different vendors for comparative purposes (ASO-4.S, Sigma; ASO-4.I, Integrated DNA Technologies). Human iPSC-derived neurons (GABAergic) were treated at 14 DIV with a […] ½ log dose curve of ASO-3.1, ASO-3.2, ASO-4.S, ASO-4.I, ASO-4.1, ASO-4.2, ASO-4.3, ASO-4.4, and ASO-6.1 [30 nM, 100 nM, 300 nM, 1 μM (n=6)]. At 20 DIV, the IC50 and Emax of each ASO was estimated as described above (FIG. 5A-B and Table 12). […] No significant difference was observed between ASO-4.S and ASO-4.I.
# The potency of ASO-4 and ASO-6.1 was further examined in iPSC-derived neurons at a later time point in differentiation. GABAergic iPSC-derived neurons were treated at 29 DIV with a 10-point ½ log dose response curve of ASO-4 and ASO-6.1 [1 nM, 3 nM, 10 nM, 30 nM, 100 nM, 300 nM, 1 μM, 3 μM, 10 μM, and 30 μM (n=3)]. At 35 DIV, the IC50 and Emax of each ASO was estimated as described above (FIG. 5C-D and Table 14). The dose response curves of ASO-4 and ASO-6.1 were not similar (Parallelism test: F(3,172)=22.7, p<0.0001).
# GABAergic and glutamatergic induced pluripotent stem cell (iPSC) derived neural precursor cells (NRC-100-010-001 and GNC-301-030-001, Cellular Dynamics International, Madison Wis.) were differentiated into neurons according to the manufactures protocol. Briefly, neural precursor cells were thawed and resuspended in chemically defined medium and added to sterile-culture plates coated with poly-D-lysine and laminin. The medium was replaced 24 hr after plating and then one-half of the medium was replaced every 3-5 days afterwards.
# For cultured iPSC-derived neurons, RNA isolation and cDNA synthesis were performed using the Cell-to-CT kit (Thermo Fisher Scientific) in a lysate volume of 55 μl.
# The steady state RNA levels of target transcripts were measured using TaqMan quantitative reverse-transcription PCR (qRT-PCR) assays. Total reaction volume was 10 uL, including 2 μl of cDNA, 1× Gene Expression Master mix (4369016, Thermo Fisher Scientific, Waltham, Mass.), and 1× TaqMan primer assay (Thermo Fisher Scientific). Cycling conditions were 2 minutes at 50° C., 10 minutes at 95° C., and 40 cycles of 15 seconds at 95° C. and 1 minute at 60° C., with readings taken at the 60° C. step of every cycle. […]
# [1] = Topo 1 μM, 14 DIV to 20 DIV, ASO-1 minus labelled treatment
# [2] = Topo 1 μM, 14 DIV to 20 DIV, ASO-R minus labelled treatment
# [3] = Topo 1 μM, treated 14 DIV, RNA 20 DIV, normalized to ASO-C, ASO-C minus labelled treatment
# [4] = treated 14 DIV, RNA 20 DIV, 10-point dose curve, 4-parameter logistic (Hill)
# [5] = optimized ASOs, 14 DIV to 20 DIV, parallel model, 3-parameter logistic, read-out: IC50 (M), UBE3A-AS
# [6] = optimized ASOs, treated 14 DIV, RNA 20 DIV, 5-point dose curve 30 nM-3 μM, full model, 3-parameter logistic, read-out: IC50 Estimate, UBE3A-AS
# [7] = treated 29 DIV, RNA 35 DIV, 10-point dose curve, full model, 4-parameter logistic (Hill), read-out: IC50 Estimate, UBE3A-AS
# [8] = Topo 1 μM, 14 DIV to 20 DIV, Topo minus labelled treatment
# [9] = 14 DIV to 20 DIV, ASO-3 minus labelled treatment
# [10] = 14 DIV to 20 DIV, ASO-5 minus labelled treatment
# [11] = 14 DIV to 20 DIV, ASO-6 minus labelled treatment
Compound,"30 μM (Mean), normalized UBE3A-AS RNA level relative to vehicle (treated 14 DIV, RNA 20 DIV)","Difference, UBE3A-AS RNA level [1]","Difference, UBE3A-AS RNA level [2]","Difference, UBE3A-AS RNA level [3]",Emax Estimate (normalized UBE3A-AS RNA level relative to vehicle) [4],"3 μM (Mean), Emax, normalized UBE3A-AS RNA level relative to vehicle (treated 14 DIV, RNA 20 DIV)","30 μM (Mean), normalized UBE3A-AS RNA level relative to vehicle (treated 29 DIV, RNA 35 DIV)",low concentration that significantly reduced UBE3A-AS RNA levels [nM],IC50 [5] [M],"Relative Potency (optimized ASOs, parallel model)",IC50 [6] [M],IC50 [7] [M],"Difference, UBE3A-AS RNA level [8]","Difference, UBE3A-AS RNA level [9]","Difference, UBE3A-AS RNA level [10]","Difference, UBE3A-AS RNA level [11]","UBE3A-AS RNA levels relative to the control treatment (in words) (treated 14 DIV, RNA 20 DIV)",also measured
"CC[C@@]1(O)C(=O)OCc2c1cc1n(c2=O)Cc2cc3c(CN(C)C)c(O)ccc3nc2-1 [Topotecan, reference compound]",0.21,0.15,0.64,0.66,0.26,–,–,–,–,–,–,–,–,–,–,–,–,"IC50 (Homo sapiens, Neuron, treated 14 DIV, RNA 20 DIV, 10-point dose curve 1 nM-30 μM, full model, 4-parameter logistic (Hill), read-out: IC50 Estimate (M), UBE3A-AS): 3.37e-08 M"
"A^L*G^L*A^L*a*t*g*g*c*a*c*a*t*c*t*5mC^L*T^L*T^L*G^L (NNNATGGCACATCTNNNN; LNA gapmer, PS, 5-methylcytosine, chemistry not fully specified) [ASO-4.4.PS.L]",–,–,–,–,–,–,–,–,–,–,–,–,–,–,–,–,–,"potency relative to the other ASOs of Cluster 1 (Cluster 1 ASOs, 18 DIV to 24 DIV): at least 3 times; Cluster (hierarchical clustering of fitted dose response curves) (candidate ASOs, Cluster 1 representing the 9 most potent ASOs): 1"
C^O*U^O*G^O*G^O*t*g*t*c*a*a*c*a*a*g*C^O*C^O*A^O*A^O [ASO-6.1],–,–,–,–,–,0.23,0.06,3,7.2e-07,highest relative potency,5.2e-07,5.17e-07,–,–,–,–,–,"Relative Potency (optimized ASOs, parallel model, listed as ASO 6.1): 2.07; ASO-6.1/ASO-4 ratio: Emax (equivalence test) (treated 29 DIV, RNA 35 DIV): −1.3; ASO-6.1/ASO-4 ratio: IC50 (equivalence test) (treated 29 DIV, RNA 35 DIV): 1.03"
G^O*U^O*A^O*C^O*U^O*c*t*t*c*c*t*c*a*g*t*C^O*A^O*U^O*C^O*C^O [ASO-2],–,0.38,0.87,0.89,–,–,–,–,–,–,–,–,0.23,0.10,0.18,0.06,largest effect,"Difference, UBE3A-AS RNA level (14 DIV to 20 DIV, ASO-4 minus labelled treatment): 0.02"
U^O*A^O*G^O*A^O*A^O*t*g*g*c*a*c*a*t*c*t*C^O*U^O*U^O*G^O*G^O [ASO-4],0.09,0.36,0.85,0.87,−0.06,0.29,0.11,3,1.49e-06,highest relative potency,1.06e-06,7.77e-07,0.21,0.08,0.16,0.04,largest effect,"decrease of UBE3A-AS RNA levels (treated 14 DIV, RNA 20 DIV): 87%; decrease of UBE3A-AS RNA levels (treated 59 DIV, RNA 65 DIV): 81%; Relative Potency (optimized ASOs, parallel model, listed as ASO 4.S): 1; ASO-4/Topotecan Emax ratio (equivalence test) (treated 14 DIV, RNA 20 DIV): −4.1; ASO-4/Topotecan IC50 ratio (equivalence test) (treated 14 DIV, RNA 20 DIV): 1.2; IC50 (treated 14 DIV, RNA 20 DIV, 10-point dose curve 1 nM-30 μM, full model, 4-parameter logistic (Hill), read-out: IC50 Estimate (M), UBE3A-AS): 6.13e-07 M; Emax Estimate (normalized UBE3A-AS RNA level relative to vehicle) (treated 29 DIV, RNA 35 DIV, 4-parameter logistic (Hill)): 0.08"

# Reference: patent publication US11198869B2, “Angelman syndrome antisense treatment” (The Texas A&M University System, priority 2017, dated 2021)
